Laboratory results: PubChem BioAssay AID1745844 (Carcinogenic Potency Database (CPDB), 2022)
Active and inactive are the calls of the source. No rule for the calls is given here.

Tested on: rodent lifetime carcinogenesis bioassay, tumor incidence TD50
Assay: chronic cancer bioassays in animals – CPDB, compiled studies (AID 1745844)
[1] = mouse, strain B6C3F1, females, by gavage, site: any site (literature study), lesion: several types, types named in the paper, dosed 103 weeks, study length 106 weeks
[2] = mouse, strain B6C3F1, females, by gavage, site: lung, lesion: alveolar/bronchiolar adenoma + alveolar/bronchiolar carcinoma, dosed 103 weeks, study length 106 weeks

In the case of `CC(C)NCC(O)c1ccc(NS(C)(=O)=O)cc1` (centres undefined), the TD50 (mouse, strain Charles River CD1, females, in feed, site: any site (literature study), lesion: benign tumor, dosed 78 weeks, study length 92 weeks) is reported as 1740 mg/kg/day (inactive), the carcinogen call (mouse, strain Charles River CD1, females, in feed, site: any site (literature study), lesion: malignant tumor, dosed 78 weeks, study length 92 weeks) is reported as “negative (inactive)” and the TD50 (mouse, strain Charles River CD1, females, in feed, site: any site (literature study), lesion: several types, types named in the paper, dosed 78 weeks, study length 92 weeks) is reported as 1910 mg/kg/day (inactive). The carcinogen call (mouse, strain Charles River CD1, females, in feed, site: liver, lesion: one or several types, types not named, dosed 78 weeks, study length 92 weeks) was “negative (inactive)”, the TD50 (mouse, strain Charles River CD1, females, in feed, site: lung, lesion: adenoma, dosed 78 weeks, study length 92 weeks) was 3500 mg/kg/day (inactive) and the TD50 (mouse, strain Charles River CD1, females, in feed, site: lung, lesion: carcinoma, dosed 78 weeks, study length 92 weeks) was 24500 mg/kg/day (inactive). For the same compound, the carcinogen call (mouse, strain Charles River CD1, males, in feed, site: any site (literature study), lesion: benign tumor, dosed 78 weeks, study length 92 weeks) was “negative (inactive)”, the carcinogen call (mouse, strain Charles River CD1, males, in feed, site: any site (literature study), lesion: malignant tumor, dosed 78 weeks, study length 92 weeks) was “negative (inactive)” and the carcinogen call (mouse, strain Charles River CD1, males, in feed, site: any site (literature study), lesion: several types, types named in the paper, dosed 78 weeks, study length 92 weeks) was “negative (inactive)”. The carcinogen call (mouse, strain Charles River CD1, males, in feed, site: liver, lesion: adenoma, dosed 78 weeks, study length 92 weeks) was “negative (inactive)”, the carcinogen call (mouse, strain Charles River CD1, males, in feed, site: liver, lesion: carcinoma, dosed 78 weeks, study length 92 weeks) was “negative (inactive)” and the TD50 (mouse, strain Charles River CD1, males, in feed, site: lung, lesion: adenoma, dosed 78 weeks, study length 92 weeks) was 31400 mg/kg/day (inactive). The carcinogen call (mouse, strain Charles River CD1, males, in feed, site: lung, lesion: carcinoma, dosed 78 weeks, study length 92 weeks) was “negative (inactive)”, the carcinogen call (rat, strain Long-Evans, females, in feed, site: any site (literature study), lesion: benign tumor, dosed 78 weeks, study length 104 weeks) was “negative (inactive)” and the TD50 (rat, strain Long-Evans, females, in feed, site: any site (literature study), lesion: malignant tumor, dosed 78 weeks, study length 104 weeks) was 1600 mg/kg/day (inactive). For the same compound, the TD50 (rat, strain Long-Evans, females, in feed, site: any site (literature study), lesion: several types, types named in the paper, dosed 78 weeks, study length 104 weeks) was 477 mg/kg/day (inactive), the TD50 (rat, strain Long-Evans, females, in feed, site: liver, lesion: cholangioma, dosed 78 weeks, study length 104 weeks) was 12600 mg/kg/day (inactive) and the carcinogen call (rat, strain Long-Evans, males, in feed, site: any site (literature study), lesion: benign tumor, dosed 78 weeks, study length 104 weeks) was “negative (inactive)”. For the same compound, the TD50 (rat, strain Long-Evans, males, in feed, site: any site (literature study), lesion: malignant tumor, dosed 78 weeks, study length 104 weeks) was 2270 mg/kg/day (inactive), the TD50 (rat, strain Long-Evans, males, in feed, site: any site (literature study), lesion: several types, types named in the paper, dosed 78 weeks, study length 104 weeks) was 796 mg/kg/day (inactive) and the TD50 (rat, strain Long-Evans, males, in feed, site: liver, lesion: hepatocellular adenoma, dosed 78 weeks, study length 104 weeks) was 309000 mg/kg/day (inactive). The TD50 (rat, strain Long-Evans, males, in feed, site: liver, lesion: hepatocellular carcinoma, dosed 78 weeks, study length 104 weeks) was 12400 mg/kg/day (inactive).

For `Cc1cc2c(nc1N)[nH]c1ccccc12`, the TD50 (mouse, strain CDF1, females, in feed, site: blood vessels, lesion: hemangioendothelial sarcoma, dosed 84 weeks, study length 84 weeks) was 38.6 mg/kg/day, the TD50 (mouse, strain CDF1, females, in feed, site: liver, lesion: hepatocellular adenoma, dosed 84 weeks, study length 84 weeks) was 118 mg/kg/day and the TD50 (mouse, strain CDF1, females, in feed, site: liver, lesion: hepatocellular carcinoma, dosed 84 weeks, study length 84 weeks) was 98.9 mg/kg/day. It also gave a TD50 (mouse, strain CDF1, females, in feed, site: liver, lesion: several types, types named in the paper, dosed 84 weeks, study length 84 weeks) of 38.6 mg/kg/day, a TD50 (mouse, strain CDF1, females, in feed, site: lung, lesion: adenoma, dosed 84 weeks, study length 84 weeks) of 1840 mg/kg/day and a TD50 (mouse, strain CDF1, males, in feed, site: blood vessels, lesion: hemangioendothelial sarcoma, dosed 73 weeks, study length 73 weeks) of 15.6 mg/kg/day. The TD50 (mouse, strain CDF1, males, in feed, site: liver, lesion: hepatocellular adenoma, dosed 73 weeks, study length 73 weeks) was 90.9 mg/kg/day, the TD50 (mouse, strain CDF1, males, in feed, site: liver, lesion: hepatocellular carcinoma, dosed 73 weeks, study length 73 weeks) was 127 mg/kg/day and the TD50 (mouse, strain CDF1, males, in feed, site: liver, lesion: several types, types named in the paper, dosed 73 weeks, study length 73 weeks) was 43.5 mg/kg/day. For the same compound, the TD50 (mouse, strain CDF1, males, in feed, site: lung, lesion: adenoma, dosed 73 weeks, study length 73 weeks) was 1180 mg/kg/day, the TD50 (rat, strain F344/DuCrj, males, in feed, site: liver, lesion: hepatocellular carcinoma, dosed 100 weeks, study length 100 weeks) was 11.7 mg/kg/day and the TD50 (rat, strain F344/DuCrj, males, in feed, site: pancreas, lesion: acinar-cell adenoma, dosed 100 weeks, study length 100 weeks) was 8.7 mg/kg/day. For the same compound, the TD50 (rat, strain F344/DuCrj, males, in feed, site: pancreatic islets, lesion: islet-cell adenoma, dosed 100 weeks, study length 100 weeks) was 48.1 mg/kg/day, the TD50 (rat, strain F344/DuCrj, males, in feed, site: salivary gland, lesion: fibrosarcoma, dosed 100 weeks, study length 100 weeks) was 73.5 mg/kg/day and the TD50 (rat, strain F344/DuCrj, males, in feed, site: subcutaneous tissue, lesion: fibroma, dosed 100 weeks, study length 100 weeks) was 6.7 mg/kg/day. It also gave a TD50 (rat, strain F344/DuCrj, males, in feed, site: urinary bladder, lesion: transitional-cell carcinoma, dosed 100 weeks, study length 100 weeks) of 28.6 mg/kg/day.

For `O=NN1CC=CCO1`, the TD50 (rat, strain Sprague-Dawley, both sexes, in drinking water, site: any site (literature study), lesion: malignant tumor, dosed 87 weeks, study length 101 weeks) was 90.6 mg/kg/day, the TD50 (rat, strain Sprague-Dawley, both sexes, in drinking water, site: any site (literature study), lesion: several types, types named in the paper, dosed 87 weeks, study length 101 weeks) was 110 mg/kg/day and the TD50 (rat, strain Sprague-Dawley, both sexes, in drinking water, site: liver, lesion: hepatoma, dosed 87 weeks, study length 101 weeks) was 417 mg/kg/day (inactive).

Compound `C=CCOC(=O)CC(C)C` has a TD50 (mouse, strain B6C3F1, females, by gavage, site: all sites, lesion: malignant lymphoma, histiocytic type + malignant lymphoma, mixed type + malignant lymphoma, lymphocytic type, dosed 103 weeks, study length 106 weeks) of 62.8 mg/kg/day, a TD50 (mouse, strain B6C3F1, females, by gavage, site: all sites, lesion: malignant lymphoma, histiocytic type, dosed 103 weeks, study length 106 weeks) of 238 mg/kg/day and a TD50 (mouse, strain B6C3F1, females, by gavage, site: all sites, lesion: malignant lymphoma, mixed type, dosed 103 weeks, study length 106 weeks) of 102 mg/kg/day. For the same compound, the TD50 [1] was 65.5 mg/kg/day, the TD50 [2] was 4450 mg/kg/day and the TD50 (mouse, strain B6C3F1, males, by gavage, site: any site (literature study), lesion: several types, types named in the paper, dosed 103 weeks, study length 106 weeks) was 206 mg/kg/day. For the same compound, the TD50 (mouse, strain B6C3F1, males, by gavage, site: gastric mucosa, lesion: squamous-cell papilloma, dosed 103 weeks, study length 106 weeks) was 295 mg/kg/day (inactive), the TD50 (rat, strain Fischer 344, females, by gavage, site: any site (literature study), lesion: several types, types named in the paper, dosed 103 weeks, study length 106 weeks) was 43.5 mg/kg/day (inactive) and the TD50 (rat, strain Fischer 344, males, by gavage, site: all sites, lesion: monocytic leukemia + malignant lymphoma, histiocytic type, dosed 103 weeks, study length 106 weeks) was 123 mg/kg/day. The TD50 (rat, strain Fischer 344, males, by gavage, site: all sites, lesion: monocytic leukemia, dosed 103 weeks, study length 106 weeks) was 149 mg/kg/day, the TD50 (rat, strain Fischer 344, males, by gavage, site: any site (literature study), lesion: several types, types named in the paper, dosed 103 weeks, study length 106 weeks) was 50.5 mg/kg/day and the TD50 (rat, strain Fischer 344, males, by gavage, site: liver, lesion: hepatocellular adenoma + hepatocellular carcinoma + neoplastic nodule, dosed 103 weeks, study length 106 weeks) was 264 mg/kg/day. The TD50 (rat, strain Fischer 344, males, by gavage, site: preputial gland, lesion: adenoma, NOS + carcinoma, NOS + squamous-cell carcinoma, dosed 103 weeks, study length 106 weeks) was 136 mg/kg/day.

`CC(CCl)OC(C)CCl` (centres undefined) gave a TD50 [1] of 231 mg/kg/day, a TD50 [2] of 311 mg/kg/day and a TD50 (mouse, strain B6C3F1, females, by gavage, site: lung, lesion: alveolar/bronchiolar adenoma, dosed 103 weeks, study length 106 weeks) of 381 mg/kg/day. The TD50 (mouse, strain B6C3F1, females, by gavage, site: stomach, lesion: squamous-cell carcinoma + squamous-cell papilloma, dosed 103 weeks, study length 106 weeks) was 1650 mg/kg/day, the TD50 (mouse, strain B6C3F1, males, by gavage, site: any site (literature study), lesion: several types, types named in the paper, dosed 103 weeks, study length 105 weeks) was 116 mg/kg/day and the TD50 (mouse, strain B6C3F1, males, by gavage, site: liver, lesion: hepatocellular adenoma + hepatocellular carcinoma + neoplastic nodule, dosed 103 weeks, study length 105 weeks) was 138 mg/kg/day. It also gave a TD50 (mouse, strain B6C3F1, males, by gavage, site: liver, lesion: hepatocellular adenoma + hepatocellular carcinoma, dosed 103 weeks, study length 105 weeks) of 138 mg/kg/day, a TD50 (mouse, strain B6C3F1, males, by gavage, site: liver, lesion: hepatocellular carcinoma, dosed 103 weeks, study length 105 weeks) of 229 mg/kg/day and a TD50 (mouse, strain B6C3F1, males, by gavage, site: lung, lesion: alveolar/bronchiolar adenoma + alveolar/bronchiolar carcinoma, dosed 103 weeks, study length 105 weeks) of 259 mg/kg/day. The TD50 (mouse, strain B6C3F1, males, by gavage, site: lung, lesion: alveolar/bronchiolar adenoma, dosed 103 weeks, study length 105 weeks) was 306 mg/kg/day, the TD50 (rat, strain Fischer 344, females, by gavage, site: any site (literature study), lesion: several types, types named in the paper, dosed 103 weeks, study length 105 weeks) was 65.6 mg/kg/day (inactive) and the TD50 (rat, strain Fischer 344, males, by gavage, site: any site (literature study), lesion: several types, types named in the paper, dosed 103 weeks, study length 104 weeks) was 101 mg/kg/day (inactive).

In the case of `CC(C)O`, the carcinogen call (mouse, strain Charles River CD1, females, inhaled, site: kidney, lesion: one or several types, types not named, dosed 54 weeks, study length 54 weeks) is reported as “negative (inactive)”, the carcinogen call (mouse, strain Charles River CD1, females, inhaled, site: kidney, lesion: one or several types, types not named, dosed 78 weeks, study length 78 weeks) is reported as “negative (inactive)” and the carcinogen call (mouse, strain Charles River CD1, males, inhaled, site: kidney, lesion: one or several types, types not named, dosed 54 weeks, study length 54 weeks) is reported as “negative (inactive)”. The carcinogen call (mouse, strain Charles River CD1, males, inhaled, site: kidney, lesion: one or several types, types not named, dosed 78 weeks, study length 78 weeks) was “negative (inactive)”, the carcinogen call (rat, strain Fischer 344, females, inhaled, site: kidney, lesion: one or several types, types not named, dosed 72 weeks, study length 73 weeks) was “negative (inactive)” and the carcinogen call (rat, strain Fischer 344, females, inhaled, site: kidney, lesion: one or several types, types not named, dosed 104 weeks, study length 104 weeks) was “negative (inactive)”. The carcinogen call (rat, strain Fischer 344, males, inhaled, site: kidney, lesion: one or several types, types not named, dosed 72 weeks, study length 73 weeks) was “negative (inactive)”, the carcinogen call (rat, strain Fischer 344, males, inhaled, site: kidney, lesion: one or several types, types not named, dosed 102 weeks, study length 104 weeks) was “negative (inactive)” and the TD50 (rat, strain Fischer 344, males, inhaled, site: testis, lesion: interstitial-cell adenoma, dosed 72 weeks, study length 73 weeks) was 456 mg/kg/day (inactive). For the same compound, the TD50 (rat, strain Fischer 344, males, inhaled, site: testis, lesion: interstitial-cell adenoma, dosed 102 weeks, study length 104 weeks) was 46.4 mg/kg/day (inactive).

Work on `Nc1ccc2c(c1)oc1ccccc12` yielded a TD50 (rat, strain Wistar, males, in feed, site: any site (literature study), lesion: benign tumor, dosed 89 weeks, study length 89 weeks) of 1.57 mg/kg/day, a TD50 (rat, strain Wistar, males, in feed, site: any site (literature study), lesion: malignant tumor, dosed 89 weeks, study length 89 weeks) of 2.48 mg/kg/day and a TD50 (rat, strain Wistar, males, in feed, site: liver, lesion: hepatoma, dosed 89 weeks, study length 89 weeks) of 9.44 mg/kg/day.
